From ChEMBL document CHEMBL1201862, “PubChem BioAssay data set” (2004)
Active and inactive are the calls of the source.

Legend:
[1] = molecular target: T1, Short transient receptor potential channel 4 (Mus musculus, UniProt Q9QUQ5); assay: mouse TRPC4 channel activators, dose response, cell-based, HEK293 TRPC4/mu-opioid, Fluo-4 calcium (AID 434937); assay type: functional
T1 sequence (Q9QUQ5 whole entry): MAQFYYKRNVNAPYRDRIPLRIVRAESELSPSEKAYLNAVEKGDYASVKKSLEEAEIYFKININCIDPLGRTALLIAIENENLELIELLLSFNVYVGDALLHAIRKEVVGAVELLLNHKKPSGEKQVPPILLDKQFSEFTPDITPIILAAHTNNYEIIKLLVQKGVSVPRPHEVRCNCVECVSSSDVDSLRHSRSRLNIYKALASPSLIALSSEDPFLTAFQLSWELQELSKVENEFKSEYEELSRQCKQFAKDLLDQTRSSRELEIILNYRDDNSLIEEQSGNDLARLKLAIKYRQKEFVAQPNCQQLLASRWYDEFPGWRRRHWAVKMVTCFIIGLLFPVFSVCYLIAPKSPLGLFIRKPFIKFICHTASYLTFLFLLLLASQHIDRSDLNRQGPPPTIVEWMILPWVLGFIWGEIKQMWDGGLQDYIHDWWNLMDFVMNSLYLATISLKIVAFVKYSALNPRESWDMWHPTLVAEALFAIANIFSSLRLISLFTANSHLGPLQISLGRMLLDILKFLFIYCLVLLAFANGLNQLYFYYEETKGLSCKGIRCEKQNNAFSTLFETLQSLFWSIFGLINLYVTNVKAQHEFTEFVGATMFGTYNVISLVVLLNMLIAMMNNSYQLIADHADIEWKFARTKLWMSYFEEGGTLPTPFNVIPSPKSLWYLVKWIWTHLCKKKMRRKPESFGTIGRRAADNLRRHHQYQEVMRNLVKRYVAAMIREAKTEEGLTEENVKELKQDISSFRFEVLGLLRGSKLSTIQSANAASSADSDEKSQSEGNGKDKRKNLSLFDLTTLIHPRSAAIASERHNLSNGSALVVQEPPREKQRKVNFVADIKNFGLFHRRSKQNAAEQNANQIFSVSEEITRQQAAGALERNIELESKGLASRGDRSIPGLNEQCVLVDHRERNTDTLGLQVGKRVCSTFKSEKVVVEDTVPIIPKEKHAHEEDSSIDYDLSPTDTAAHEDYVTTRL

[2] = molecular target: T1, Short transient receptor potential channel 4; assay: mouse TRPC4 channel inhibitors, dose response, cell-based, HEK293 TRPC4/mu-opioid, Fluo-4 calcium (AID 434942); assay type: functional;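 further: potency of inhibitors blocking the TRPC4 calcium response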
[3] = molecular target: T2, DNA repair protein RAD52 homolog (Homo sapiens, UniProt P43351); assay type: functional, biochemical
T2 sequence (P43351 whole entry): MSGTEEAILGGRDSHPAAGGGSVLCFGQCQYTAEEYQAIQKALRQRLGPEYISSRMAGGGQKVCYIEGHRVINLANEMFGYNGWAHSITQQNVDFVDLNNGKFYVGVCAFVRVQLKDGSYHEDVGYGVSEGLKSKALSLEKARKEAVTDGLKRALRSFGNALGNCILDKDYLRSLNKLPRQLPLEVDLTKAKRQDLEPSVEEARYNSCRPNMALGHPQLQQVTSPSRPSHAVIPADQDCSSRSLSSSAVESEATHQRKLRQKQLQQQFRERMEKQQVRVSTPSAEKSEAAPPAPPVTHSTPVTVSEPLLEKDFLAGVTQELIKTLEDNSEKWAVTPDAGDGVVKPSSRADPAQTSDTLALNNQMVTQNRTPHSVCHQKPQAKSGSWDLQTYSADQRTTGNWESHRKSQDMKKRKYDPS

[4] = molecular target: T3, DNA repair and recombination protein RAD54-like (Homo sapiens, UniProt Q92698); assay: inhibitors of human RAD54 branch migration, confirmation, biochemical, fluorescence, cherry-picked samples, dose series (AID 651657); assay type: functional
T3 sequence (Q92698 whole entry): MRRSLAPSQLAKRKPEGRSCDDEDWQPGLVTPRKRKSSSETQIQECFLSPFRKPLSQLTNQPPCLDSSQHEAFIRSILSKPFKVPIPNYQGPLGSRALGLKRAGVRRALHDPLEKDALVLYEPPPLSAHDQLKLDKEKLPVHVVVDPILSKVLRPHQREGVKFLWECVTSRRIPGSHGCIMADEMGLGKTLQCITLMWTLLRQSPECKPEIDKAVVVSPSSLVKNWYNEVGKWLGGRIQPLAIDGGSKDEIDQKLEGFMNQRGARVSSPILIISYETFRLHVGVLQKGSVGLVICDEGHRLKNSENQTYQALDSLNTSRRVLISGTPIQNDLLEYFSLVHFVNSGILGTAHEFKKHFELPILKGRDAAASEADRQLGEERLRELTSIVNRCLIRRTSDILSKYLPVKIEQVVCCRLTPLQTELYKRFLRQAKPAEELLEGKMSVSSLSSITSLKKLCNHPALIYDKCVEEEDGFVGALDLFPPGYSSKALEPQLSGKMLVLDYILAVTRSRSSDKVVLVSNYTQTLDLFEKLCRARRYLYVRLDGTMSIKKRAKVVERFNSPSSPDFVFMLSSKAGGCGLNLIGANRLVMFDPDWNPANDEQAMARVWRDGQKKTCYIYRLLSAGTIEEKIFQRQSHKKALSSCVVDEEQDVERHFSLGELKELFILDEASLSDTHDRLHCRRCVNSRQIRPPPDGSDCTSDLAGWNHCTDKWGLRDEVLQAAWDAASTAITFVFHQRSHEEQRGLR

[5] = molecular target: T4, Heat shock factor protein 1 (Mus musculus, UniProt P38532); assay: inhibition of MG132-induced HSE-luciferase signal, confirmation, cell-based, NIH3T3, luminescence, dose retest (AID 2382); assay type: functional;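 further: NIH3T3 fibroblasts with HSF1-driven luciferase reporter stressed by proteasome inhibitor MG132; luminescence from HSF1-driven luciferase expression after 8 hours of MG132 stress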
T4 sequence (P38532 whole entry): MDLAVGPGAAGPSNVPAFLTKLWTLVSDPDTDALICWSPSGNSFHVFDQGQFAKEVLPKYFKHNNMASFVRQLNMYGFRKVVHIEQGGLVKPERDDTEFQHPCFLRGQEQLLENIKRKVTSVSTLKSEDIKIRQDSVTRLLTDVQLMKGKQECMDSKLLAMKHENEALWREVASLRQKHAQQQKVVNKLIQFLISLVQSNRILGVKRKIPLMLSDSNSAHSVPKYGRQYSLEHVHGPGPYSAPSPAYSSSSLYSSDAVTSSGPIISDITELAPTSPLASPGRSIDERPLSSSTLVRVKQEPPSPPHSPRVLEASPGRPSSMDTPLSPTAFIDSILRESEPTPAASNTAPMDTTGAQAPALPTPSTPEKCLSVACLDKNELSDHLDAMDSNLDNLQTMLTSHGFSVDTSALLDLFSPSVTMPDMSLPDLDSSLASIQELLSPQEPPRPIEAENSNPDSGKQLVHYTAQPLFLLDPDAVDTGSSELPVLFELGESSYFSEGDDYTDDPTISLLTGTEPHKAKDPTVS

Genome polyprotein = Genome polyprotein (dengue virus type 2, UniProt P29990); assay: Dengue-2 NS5 methyltransferase inhibitors, primary screen, biochemical, confirmation dose response (AID 588689); assay type: functional
[6] = molecular target: Peroxisome proliferator-activated receptor gamma/Nuclear receptor coactivator 1 (Homo sapiens, UniProt P37231); assay: (§1) TR-FRET dose response biochemical High Throughput Screening assay for agonists of the steroid receptor coactivator 1 (SRC-1) recruitment by the peroxisome proliferator-activated receptor gamma (PPAR gamma): non-selective agonists. [Related pubchem assays (depositor defined):AID1300, AID1808, AID504735, AID631]; assay type: protein assay
[7] = molecular target: Peroxisome proliferator-activated receptor gamma/Nuclear receptor coactivator 3 (Homo sapiens, UniProt P37231); assay: as §1, with “3 (SRC-3)” for “1 (SRC-1)”, “assays: 1301 (Confirmation screen.), 1048 (Primary screen.)]” for “assays (depositor defined):AID1300, AID1808, AID504735, AID631]”; assay type: functional
[8] = molecular target: Peroxisome proliferator-activated receptor gamma/Nuclear receptor coactivator 2 (Homo sapiens, UniProt P37231); assay: TR-FRET dose response biochemical High Throughput Screening assay for agonists of the steroid receptor coactivator 2 (SRC-2) recruitment by the peroxisome proliferator-activated receptor gamma (PPAR gamma): non-selective agonists. [Related pubchem assays: 1297, 1032 ]; assay type: functional
[9] = molecular target: T5, Hepatocyte nuclear factor 4-alpha (Homo sapiens, UniProt P41235); assay type: functional, cell-based;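 further: biochemical luminescence-based dose-response counterscreen measuring inhibition of HNF4 dimerization, run alongside a screen for blockers of ABHD5–perilipin-5 interaction; split luciferase complementation of HNF4 fusion proteins in cell lysate measuring dimerization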
T5 sequence (P41235 whole entry): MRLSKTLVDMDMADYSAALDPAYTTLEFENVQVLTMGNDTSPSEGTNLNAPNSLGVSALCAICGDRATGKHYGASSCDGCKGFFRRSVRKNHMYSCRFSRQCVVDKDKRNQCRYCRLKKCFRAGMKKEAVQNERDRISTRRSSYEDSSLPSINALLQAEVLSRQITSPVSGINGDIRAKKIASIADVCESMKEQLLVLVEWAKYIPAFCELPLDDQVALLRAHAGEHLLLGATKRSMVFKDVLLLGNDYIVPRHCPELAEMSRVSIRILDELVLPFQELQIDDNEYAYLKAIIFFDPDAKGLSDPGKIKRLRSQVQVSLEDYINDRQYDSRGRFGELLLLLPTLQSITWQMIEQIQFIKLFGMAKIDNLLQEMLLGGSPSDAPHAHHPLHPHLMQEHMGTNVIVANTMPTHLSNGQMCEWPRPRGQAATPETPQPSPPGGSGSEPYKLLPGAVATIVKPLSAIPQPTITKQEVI

[10] = molecular target: T6, Rac GTPase-activating protein 1 (Homo sapiens, UniProt Q9H0H5); assay: MgcRacGAP GTPase-activating activity inhibitors, confirmation, biochemical, ADP Hunter fluorescence, primary and confirmatory (AID 624330); assay type: functional
T6 sequence (Q9H0H5 whole entry): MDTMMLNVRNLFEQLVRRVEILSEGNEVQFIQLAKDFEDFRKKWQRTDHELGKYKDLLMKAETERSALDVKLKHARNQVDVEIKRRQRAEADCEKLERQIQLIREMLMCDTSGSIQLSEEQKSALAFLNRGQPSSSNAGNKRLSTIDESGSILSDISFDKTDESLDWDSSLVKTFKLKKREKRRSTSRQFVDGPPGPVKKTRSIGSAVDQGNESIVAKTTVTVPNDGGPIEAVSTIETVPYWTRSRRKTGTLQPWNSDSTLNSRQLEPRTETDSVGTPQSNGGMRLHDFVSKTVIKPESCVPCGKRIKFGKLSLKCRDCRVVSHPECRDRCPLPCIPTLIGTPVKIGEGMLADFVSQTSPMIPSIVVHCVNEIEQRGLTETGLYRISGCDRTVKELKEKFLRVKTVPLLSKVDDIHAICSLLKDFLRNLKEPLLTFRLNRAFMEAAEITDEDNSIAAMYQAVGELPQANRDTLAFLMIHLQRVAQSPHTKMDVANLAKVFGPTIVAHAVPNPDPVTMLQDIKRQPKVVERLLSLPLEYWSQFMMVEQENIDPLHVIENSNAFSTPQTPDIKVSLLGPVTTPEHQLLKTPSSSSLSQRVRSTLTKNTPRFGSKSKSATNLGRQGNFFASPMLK

Large T antigen = Large T antigen (Simian virus 40, UniProt P03070); assay type: functional, Betapolyomavirus macacae;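 further: Confirmatory-stage PubChem screen for compounds that inhibit SV40 T antigen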
[11] = growth suppression of beta-catenin-knockout colon cells, dose response, cell-based, HCT116, human colon tumor (AID 1045); assay type: functional;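 further: HCT116 colon tumor cells with beta catenin knocked out; cells exposed to compound for 60 hours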
[12] = molecular target: Glucose-6-phosphate 1-dehydrogenase (Homo sapiens, UniProt P11413); assay: human G6PD enzyme inhibitors, dose response, selectivity assay for P. falciparum G6PD inhibitor project, biochemical, fluorescence (AID 504792); assay type: functional
[13] = growth suppression of PTEN-null colon cells, dose response, cell-based, HCT116 PTEN knockout (AID 1047); assay type: functional;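 further: HCT116 colon tumor cells with PTEN knocked out; cells exposed to compound for 60 hours before readout; potency for loss of cell viability measured by luminescence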

Chain of Peroxisome proliferator-activated receptor gamma/Nuclear receptor coactivator 2 (P37231 whole entry, the tested form may be a part): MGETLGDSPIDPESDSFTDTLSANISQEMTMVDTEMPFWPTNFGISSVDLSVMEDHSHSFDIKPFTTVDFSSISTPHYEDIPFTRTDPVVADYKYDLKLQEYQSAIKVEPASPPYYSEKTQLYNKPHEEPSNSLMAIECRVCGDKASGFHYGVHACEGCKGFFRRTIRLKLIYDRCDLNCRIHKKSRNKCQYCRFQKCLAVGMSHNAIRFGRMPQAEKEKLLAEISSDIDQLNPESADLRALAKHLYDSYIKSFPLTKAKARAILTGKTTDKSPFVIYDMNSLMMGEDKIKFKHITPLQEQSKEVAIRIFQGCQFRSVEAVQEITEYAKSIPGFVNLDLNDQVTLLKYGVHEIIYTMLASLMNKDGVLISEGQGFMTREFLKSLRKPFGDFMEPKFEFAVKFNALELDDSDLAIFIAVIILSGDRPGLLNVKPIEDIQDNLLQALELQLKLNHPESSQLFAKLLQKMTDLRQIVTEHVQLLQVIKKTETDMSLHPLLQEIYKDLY
Chain of Peroxisome proliferator-activated receptor gamma/Nuclear receptor coactivator 2 (Q15596 whole entry, further chain, the tested form may be a part): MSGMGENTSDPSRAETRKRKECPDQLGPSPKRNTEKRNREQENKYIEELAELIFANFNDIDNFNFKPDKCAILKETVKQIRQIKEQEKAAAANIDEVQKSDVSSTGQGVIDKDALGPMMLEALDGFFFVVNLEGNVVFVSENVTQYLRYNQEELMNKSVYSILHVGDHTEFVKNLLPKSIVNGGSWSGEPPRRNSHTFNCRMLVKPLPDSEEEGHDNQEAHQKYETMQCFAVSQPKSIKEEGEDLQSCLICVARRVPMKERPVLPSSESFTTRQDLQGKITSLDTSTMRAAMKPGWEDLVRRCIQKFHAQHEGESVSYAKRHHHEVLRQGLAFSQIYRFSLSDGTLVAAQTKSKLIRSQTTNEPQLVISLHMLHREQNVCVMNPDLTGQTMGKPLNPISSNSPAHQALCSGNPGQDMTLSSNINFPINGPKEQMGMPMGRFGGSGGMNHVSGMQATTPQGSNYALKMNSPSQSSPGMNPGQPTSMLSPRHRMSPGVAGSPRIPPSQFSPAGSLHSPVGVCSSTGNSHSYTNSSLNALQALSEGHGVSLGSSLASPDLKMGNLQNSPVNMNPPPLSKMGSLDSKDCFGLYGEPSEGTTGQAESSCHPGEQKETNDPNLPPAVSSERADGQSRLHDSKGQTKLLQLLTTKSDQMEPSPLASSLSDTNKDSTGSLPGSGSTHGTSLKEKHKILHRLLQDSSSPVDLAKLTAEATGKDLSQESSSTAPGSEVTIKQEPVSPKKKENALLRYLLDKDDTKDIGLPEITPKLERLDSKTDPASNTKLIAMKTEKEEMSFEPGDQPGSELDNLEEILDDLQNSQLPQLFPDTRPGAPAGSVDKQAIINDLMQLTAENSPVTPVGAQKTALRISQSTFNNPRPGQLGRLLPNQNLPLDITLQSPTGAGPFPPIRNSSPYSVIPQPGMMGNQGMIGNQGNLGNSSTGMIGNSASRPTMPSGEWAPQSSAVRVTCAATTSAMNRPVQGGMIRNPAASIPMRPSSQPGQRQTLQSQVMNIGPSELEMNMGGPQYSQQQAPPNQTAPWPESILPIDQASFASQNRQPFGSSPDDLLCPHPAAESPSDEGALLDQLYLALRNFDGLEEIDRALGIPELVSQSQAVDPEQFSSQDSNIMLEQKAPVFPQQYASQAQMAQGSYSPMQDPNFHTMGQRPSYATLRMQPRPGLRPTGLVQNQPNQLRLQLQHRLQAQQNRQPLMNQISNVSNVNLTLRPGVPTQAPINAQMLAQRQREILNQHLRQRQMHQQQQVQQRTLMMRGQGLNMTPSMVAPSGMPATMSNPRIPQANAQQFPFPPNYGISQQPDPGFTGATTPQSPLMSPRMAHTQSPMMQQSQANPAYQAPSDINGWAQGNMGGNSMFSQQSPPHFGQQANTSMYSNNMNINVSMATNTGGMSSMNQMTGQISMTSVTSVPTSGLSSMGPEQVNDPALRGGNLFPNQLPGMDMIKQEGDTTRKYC
Chain of Peroxisome proliferator-activated receptor gamma/Nuclear receptor coactivator 3 (P37231 whole entry): as the sequence (P37231 whole entry, the tested form may be a part) above
Chain of Peroxisome proliferator-activated receptor gamma/Nuclear receptor coactivator 3 (Q9Y6Q9 whole entry, further chain): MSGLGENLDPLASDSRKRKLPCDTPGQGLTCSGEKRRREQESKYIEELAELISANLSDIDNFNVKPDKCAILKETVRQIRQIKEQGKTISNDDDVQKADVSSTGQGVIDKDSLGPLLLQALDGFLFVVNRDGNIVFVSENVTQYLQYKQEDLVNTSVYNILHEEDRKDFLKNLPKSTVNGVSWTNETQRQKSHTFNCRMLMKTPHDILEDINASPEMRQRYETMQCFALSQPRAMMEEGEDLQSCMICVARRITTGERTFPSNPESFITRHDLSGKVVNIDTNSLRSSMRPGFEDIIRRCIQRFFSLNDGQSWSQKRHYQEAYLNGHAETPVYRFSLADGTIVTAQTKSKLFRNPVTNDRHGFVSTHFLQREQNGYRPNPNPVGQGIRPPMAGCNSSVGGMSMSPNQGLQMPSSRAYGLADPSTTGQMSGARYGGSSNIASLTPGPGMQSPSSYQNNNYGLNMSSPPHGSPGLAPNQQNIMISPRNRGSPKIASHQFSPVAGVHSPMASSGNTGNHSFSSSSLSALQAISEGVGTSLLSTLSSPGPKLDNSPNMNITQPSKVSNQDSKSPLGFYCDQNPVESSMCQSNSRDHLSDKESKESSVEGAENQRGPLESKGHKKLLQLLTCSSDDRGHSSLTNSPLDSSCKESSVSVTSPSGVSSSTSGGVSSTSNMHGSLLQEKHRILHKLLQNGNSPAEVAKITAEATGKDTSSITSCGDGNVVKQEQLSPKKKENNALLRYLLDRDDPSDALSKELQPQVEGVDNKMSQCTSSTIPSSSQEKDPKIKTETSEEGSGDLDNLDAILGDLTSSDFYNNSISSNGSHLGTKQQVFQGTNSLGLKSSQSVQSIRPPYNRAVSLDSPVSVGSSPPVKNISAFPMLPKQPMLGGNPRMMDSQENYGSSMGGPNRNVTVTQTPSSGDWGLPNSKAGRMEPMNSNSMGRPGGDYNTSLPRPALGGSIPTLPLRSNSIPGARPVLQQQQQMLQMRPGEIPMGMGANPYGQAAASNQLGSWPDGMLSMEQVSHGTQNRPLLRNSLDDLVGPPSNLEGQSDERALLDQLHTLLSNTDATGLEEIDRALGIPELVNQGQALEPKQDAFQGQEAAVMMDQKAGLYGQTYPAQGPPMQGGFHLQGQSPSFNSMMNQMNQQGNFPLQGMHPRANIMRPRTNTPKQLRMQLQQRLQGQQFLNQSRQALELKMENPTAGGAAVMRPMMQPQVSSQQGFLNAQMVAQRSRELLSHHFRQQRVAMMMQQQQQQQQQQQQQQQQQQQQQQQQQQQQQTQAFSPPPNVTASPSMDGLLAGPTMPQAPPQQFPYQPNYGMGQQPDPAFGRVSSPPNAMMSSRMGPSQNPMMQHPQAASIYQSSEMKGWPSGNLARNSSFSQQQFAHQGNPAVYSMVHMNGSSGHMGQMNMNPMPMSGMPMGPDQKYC
Chain of Genome polyprotein (P29990 2492-3391 limits assumed): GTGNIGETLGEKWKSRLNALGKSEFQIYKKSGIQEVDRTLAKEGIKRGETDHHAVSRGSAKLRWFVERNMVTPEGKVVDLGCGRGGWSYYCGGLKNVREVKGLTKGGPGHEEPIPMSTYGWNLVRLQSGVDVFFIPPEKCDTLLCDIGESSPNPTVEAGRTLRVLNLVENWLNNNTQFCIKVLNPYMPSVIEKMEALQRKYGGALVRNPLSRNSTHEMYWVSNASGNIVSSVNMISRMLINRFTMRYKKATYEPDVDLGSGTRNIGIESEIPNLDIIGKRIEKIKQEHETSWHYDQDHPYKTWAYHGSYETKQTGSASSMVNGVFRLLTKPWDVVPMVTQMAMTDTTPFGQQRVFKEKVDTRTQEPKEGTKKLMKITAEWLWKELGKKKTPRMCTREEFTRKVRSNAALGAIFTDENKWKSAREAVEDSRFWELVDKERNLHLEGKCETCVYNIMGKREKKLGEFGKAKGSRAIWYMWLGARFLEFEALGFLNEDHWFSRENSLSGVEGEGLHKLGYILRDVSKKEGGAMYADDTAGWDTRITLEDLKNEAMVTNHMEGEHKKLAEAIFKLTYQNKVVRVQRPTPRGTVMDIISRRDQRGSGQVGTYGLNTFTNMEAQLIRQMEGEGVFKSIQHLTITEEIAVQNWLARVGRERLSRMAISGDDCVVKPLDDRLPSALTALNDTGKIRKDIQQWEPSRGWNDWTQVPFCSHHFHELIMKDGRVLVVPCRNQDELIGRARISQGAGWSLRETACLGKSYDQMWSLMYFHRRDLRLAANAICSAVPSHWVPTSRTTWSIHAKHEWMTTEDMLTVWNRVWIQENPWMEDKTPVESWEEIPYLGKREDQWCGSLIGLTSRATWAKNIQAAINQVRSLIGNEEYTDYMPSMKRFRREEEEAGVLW

With `Cc1ccc(S(=O)(=O)NCCC(=O)NCC(c2ccco2)N2CCCCC2)cc1C` (stereo unspecified) the EC50 [1] was 0.944 µM (active) and the EC50 [2] was 0.168 µM (active).

In the case of `CCN(CC)Cc1cc(Nc2ccnc3cc(Cl)ccc23)ccc1O`, the AC50 [3] is reported as 10 µM (active) and the AC50 [4] is reported as 10.3 µM (active).

With `COc1ccccc1Nc1nc(NCCCN(C)C)nc(N)c1[N+](=O)[O-]` the AC50 [3] was 5.59 µM (active), the AC50 [4] was 11.1 µM (active) and the EC50 [5] was > 195 µM (not active).

With `Cc1ccc(-c2csc3nc(SCC(=O)Nc4ccc(Cl)c(C(=O)O)c4)nc(O)c23)cc1` the IC50 (Genome polyprotein) was 37 µM (active).

In the case of `O=C(Nc1nc2c(s1)COc1ccccc1-2)c1cccs1`, the EC50 [6] is reported as 28.5 µM (inactive), the EC50 [7] is reported as > 79.4 µM (not active) and the EC50 [8] is reported as 19.7 µM (not active).

For `CC(Nc1ccc(Br)cn1)c1cc(Cl)ccc1O` (stereo unspecified), the EC50 [6] was 6.3 µM (active), the EC50 [7] was 3.26 µM (active) and the EC50 [8] was 4.73 µM (active).

For `COc1cc(/C=C(\C#N)C(=O)Nc2ccccc2C(=O)O)cc(Cl)c1OC`, the EC50 [6] was > 79.4 µM (inactive), the EC50 [7] was 8.27 µM (active) and the EC50 [8] was > 79.4 µM (not active). The IC50 (Genome polyprotein) was 60.6 µM (active).

For `Cc1ccc(S(=O)(=O)Nc2nc(-c3ccc(F)cc3)cs2)cc1`, the IC50 (Genome polyprotein) was 70.6 µM (active).

With `COc1ccc(/C=C/C(=O)c2cc(F)ccc2OC(=O)c2ccc(OC)c(OC)c2)cc1OC` the IC50 [9] was 5.27 µM (active).

With `CN(C)CCNC(=O)c1c(NC(=O)c2ccccc2)sc2c1CCCC2` the EC50 [1] was 5.96 µM (active) and the AC50 [4] was 56.4 µM (active).

In the case of `O=S(=O)(NC1=NCCCCC1)c1ccc2sc(NS(=O)(=O)c3ccc4ccccc4c3)nc2c1`, the IC50 [10] is reported as 156 µM (active), the IC50 [9] is reported as 9.21 µM (active) and the IC50 (Large T antigen) is reported as 39.4 µM (active).

For `Cc1onc(-c2c(F)cccc2Cl)c1C(=O)Nc1nnc(-c2ccccc2)s1`, the EC50 [6] was 446 µM (inactive), the EC50 [7] was > 79.4 µM (not active) and the EC50 [8] was 29.8 µM (not active).

With `CC1=CC(=NOC(=O)/C=C/c2ccccc2)C=C(C)C1=O` the EC50 [11] was 13.6 µM (active), the IC50 [12] was > 80 µM (inactive) and the EC50 [13] was 14 µM (active).
